Results: US11845770B2, “Ascaroside derivatives and methods of use” (California Institute of Technology, priority 2019, dated 2023)

Tests used:
[1] = Stability in plasma (rat); type: in vitro ADME; conditions: after 120 minutes, 37° C.
Protocol: The pH of plasma was adjusted to 7.4±0.1 if required. 1 mM intermediate solution was prepared by diluting 10 μL of the 10 mM stock solution of 1 with 90 μL DMSO; 1 mM intermediate of positive control propantheline bromide was prepared by diluting 10 μL of the stock solution with 90 μL ultra-pure water. 100 μM dosing solution was prepared by diluting 10 μL of the 1 mM intermediate solution with 90 μL of 45% MeOH/H2O. 98 μL of blank plasma was spiked with 2 μL of the 100 μM dosing solution to achieve a final concentration of 2 μM of the compound in duplicate. Samples were incubated at 37° C. in a water bath. At each time point (0, 10, 30, 60 and 120 min), 400 μL of stop solution (200 ng/mL tolbutamide plus 200 ng/mL labetalol in 50% ACN/MeOH) was added and was mixed thoroughly to precipitate protein. Sample plates were centrifuged at 4,000 rpm for 10 min. An aliquot of supernatant (100 μL) was transferred from each well and was mixed with 200 μL ultra-pure water. The samples were shaken at 800 rpm for about 10 min before LC/MS/MS analysis.
The remaining percentage of compound 1 (test article) after incubation was calculated according to the following equation.

CYP2C19 = target: T1, CYP2C19 (Homo sapiens, UniProt P33261); experiment: 5 in 1 CYP inhibition assay, CYP2C19; type: in vitro ADME; conditions: microsomes, probe S-mephenytoin (4′-hydroxylation), test compound 10 μM, n=2, read-out: inhibition of cytochrome P450 isoform 2C19
T1 construct: from tissue
Protocol: (§1) CYP450 dependent activities were determined using a marker substrate cocktail. For each reaction, enzyme activities in the presence and absence of test compound (10 μM) were measured in duplicate. A known inhibitor for each isoform, tested at a single concentration (3 μM, n=2), was included as positive control. Incubation mixtures containing microsomes, substrate, and standard inhibitor or test compound were warmed at 37° C. for 10 minutes. Reactions were initiated by addition of the NADPH and incubated for 10 min. [table] After incubation, ice cold acetonitrile was added to terminate the reaction. Generation of metabolites from the substrate reactions was determined by LC-MS/MS.

CYP2D6 = target: T2, CYP2D6 (Homo sapiens, UniProt P10635); experiment: 5 in 1 CYP inhibition assay, CYP2D6; type: in vitro ADME; conditions: microsomes, probe dextromethorphan (O-demethylation), test compound 10 μM, n=2, read-out: inhibition of cytochrome P450 isoform 2D6
T2 construct: from tissue
Protocol: as §1

human naïve T cells = experiment: Stimulation of blood derived naïve T cells with Der p1 (house dust mite) antigen; type: cell-based; conditions: human naïve T cells, Der p1 antigen 5 days; 0.1-100 μM; FIG. 14
Protocol: Naïve T cells from peripheral blood samples were collected and processed using MACSxpress® Whole Blood Pan T Cell Isolation Kit (Miltenyi Biotec), according to the manufacturer's protocol. Isolated naïve T cells were cultured in RPMI medium supplemented with 5% Fetal Bovine Serum (FBS) at 37° C. with 5% (v/v) CO2. T cells were seeded in 24 well plates at a density of 0.5×10^6 cells per well. The cells were pre-treated with the compounds (0, 0.1, 1.0, 10, 100 μM) for 1 hour prior to stimulation. Cells were stimulated with […] of Dermatophagoides pteronyssinus (Der p1) antigen. After 48 hours, fresh […] of Der p1 was added and continued incubating for a further 72 hours at 37° C. with 5% (v/v) CO2. Overall T cells were stimulated with […] of Der p1 antigen for 5 days before supernatants were collected and stored at −80° C. until quantitative detection assays are performed.
Human Interleukin-4 (IL-4), Interleukin-5 (IL-5), Interleukin-6 (IL-6), Interleukin-8 (IL-8), Interleukin-13 ([…]), Interleukin-23 (IL-23), and Interferon gamma (IFNγ) released from supernatants collected post stimulation were measured using Human Magnetic Luminex® Assay Kit. Human Transforming Growth Factor beta (TGFβ) was measured using an Enzyme-Linked Immunosorbent Assay (ELISA)-based analysis.

Caco-2 cells = experiment: Bidirectional permeability in Caco-2 cells; type: in vitro ADME; conditions: 2 μM, 2 hours
Protocol: Caco-2 cells purchased from ATCC were seeded onto […] (PET) in 96-well BD Insert plates at 1×10^5 cells/cm^2, and the medium was refreshed every 4˜5 days until to the 21st to 28th day for formation of a confluent cell monolayer.
The transport buffer in the study was Hank's balanced salt solution (HBSS) with 10 mM HEPES at pH 7.40±0.05. Compound 1 was tested at 2 μM bi-directionally in duplicate. Digoxin was tested at 10 μM bi-directionally in duplicate, while nadolol and metoprolol were tested at 2 μM in A to B direction in duplicate. Final DMSO concentration was adjusted to less than 1%. […] Concentrations of compound 1 and […] in starting solution, donor solution, and receiver solution were quantified by LC/MS/MS methodologies, using peak area ratio of analyte/internal standard. […]
The apparent permeability coefficient Papp (cm/s) was calculated using the equation: Papp=(dCr/dt)×Vr/(A×C0) where dCr/dt is the cumulative concentration of compound in the receiver chamber as a function of time (μM/s); Vr is the solution volume in the receiver chamber (0.075 mL on the apical side, 0.25 mL on the basolateral side); A is the surface area for the transport, i.e. 0.0804 cm^2 for the area of the monolayer; Co is the initial concentration in the donor chamber (μM).
The efflux ratio was calculated using the equation: Efflux Ratio=Papp(BA)/Papp(AB) […]

T1 sequence (P33261 whole entry, canonical isoform): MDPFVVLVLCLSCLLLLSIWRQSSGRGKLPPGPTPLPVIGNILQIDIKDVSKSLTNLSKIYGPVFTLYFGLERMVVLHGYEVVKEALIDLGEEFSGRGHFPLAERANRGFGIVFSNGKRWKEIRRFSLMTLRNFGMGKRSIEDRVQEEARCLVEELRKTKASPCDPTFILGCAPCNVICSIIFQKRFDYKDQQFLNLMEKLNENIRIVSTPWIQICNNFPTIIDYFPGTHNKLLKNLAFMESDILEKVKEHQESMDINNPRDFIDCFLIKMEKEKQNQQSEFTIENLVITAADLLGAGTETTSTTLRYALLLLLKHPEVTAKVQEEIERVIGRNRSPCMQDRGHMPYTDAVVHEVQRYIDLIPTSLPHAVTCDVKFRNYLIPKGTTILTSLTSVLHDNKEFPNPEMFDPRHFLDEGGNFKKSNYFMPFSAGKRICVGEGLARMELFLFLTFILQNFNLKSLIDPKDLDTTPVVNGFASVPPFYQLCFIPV
T2 sequence (P10635 whole entry, canonical isoform): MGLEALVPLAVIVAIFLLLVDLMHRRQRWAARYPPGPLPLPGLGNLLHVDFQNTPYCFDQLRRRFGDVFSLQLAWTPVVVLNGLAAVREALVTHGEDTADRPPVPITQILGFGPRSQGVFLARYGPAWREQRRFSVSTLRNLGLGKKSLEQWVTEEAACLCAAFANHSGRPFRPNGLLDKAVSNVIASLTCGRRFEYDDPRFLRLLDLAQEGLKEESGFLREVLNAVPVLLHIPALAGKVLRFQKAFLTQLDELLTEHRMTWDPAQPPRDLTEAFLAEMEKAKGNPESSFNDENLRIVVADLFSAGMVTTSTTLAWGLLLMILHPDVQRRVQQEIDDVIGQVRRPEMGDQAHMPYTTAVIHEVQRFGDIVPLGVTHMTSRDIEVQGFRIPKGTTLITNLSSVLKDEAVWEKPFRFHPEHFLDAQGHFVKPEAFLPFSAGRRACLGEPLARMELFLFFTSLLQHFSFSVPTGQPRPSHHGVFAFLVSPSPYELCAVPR

Row | SMILES | remaining percentage after incubation [1] | inhibition at 10 min, 10 µM (CYP2C19) | inhibition at 10 min, 10 µM (CYP2D6) | percent inhibition relative to Stimulated of IFNγ expression (human naïve T cells) | percent inhibition relative to Stimulated of IL-5 expression (human naïve T cells) | percent inhibition relative to Stimulated of TGFβ expression (human naïve T cells) | bidirectional permeability (Caco-2 cells)
1 | C[C@H](CC/C=C/C(=O)OC(C)(C)C)O[C@@H]1O[C@@H](C)[C@H](O)C[C@H]1O [Compound 1, tert-butyl (2E,6R)-6-{[(2R,3R,5R,6S)-3,5-dihydroxy-6-methyloxan-2-yl]oxy}hept-2-enoate] | 19.2% | 16.2% | 10.1% | in a statistically significant, dose-dependent manner | in a statistically significant, dose-dependent manner | in a statistically significant, dose-dependent manner | high bidirectional permeability
2 | C[C@H](CC/C=C/C(=O)O)O[C@@H]1O[C@@H](C)[C@H](O)C[C@H]1O [ascr #7, reference compound] | 99.8% | 4% | 4.6% | statistically significant, robust blocking | dose-dependent inhibition | slight attenuation | low bidirectional permeability
